Assays:
[1] = after topical application in cold cream; cited from earlier work
[2] = test system: local peripheral and generalized pain; experiment: Nuchal (BONATH) application of compounded opioids for pain relief in patients; details: patients tapering off oral narcotics, nuchal delivery as only pain therapy
From the text: Previously described has is the “nuchal” (back of the neck at the hairline, or “BONATH”) application of triptans (Migraderm using sumatriptan) for migraine headache, tizanidine (Tizoderm) for cervical spasm and tension headache; and, apomorphine for the Parkinson's disease symptoms of tremor, rigidity, speech difficulties, and other “non-motor” symptoms.

[3] = test system: dopamine, norepinephrine, and serotonin receptors; details: topical
[4] = test system: free nerve endings; experiment: Onset of clinical effect of TPNA therapy; assay type: in vivo, human; details: topical

SMILES	narcotic withdrawal symptoms [2]	effect on symptoms of neuropathic pain and other symptoms of nerve dysfunction [3]	further results
CN1CC[C@]23c4c5ccc(O)c4O[C@H]2[C@@H](O)C=C[C@H]3[C@H]1C5 [morphine]	–	–	morphine levels in blood or urine [1]: not detected
COc1cccc(C2(O)CCCCC2CN(C)C)c1 (stereo not drawn) [tramadol]	no significant narcotic withdrawal symptoms	–	–
NCCc1ccc(O)c(O)c1 [dopamine]	–	treat symptoms of neuropathic pain	–
CN1CC[C@]23c4c5ccc(O)c4O[C@H]2[C@@H](O)C=C[C@H]3[C@H]1C5.O=S(=O)(O)O [morphine sulfate]	no significant narcotic withdrawal symptoms	–	–
CN1CCc2cccc3c2[C@H]1Cc1ccc(O)c(O)c1-3 [apomorphine]	–	treat symptoms of neuropathic pain	onset of clinical effect [4]: 10 to 15 min
